One data set concerns fibromyalgia. Particulars: cited from earlier work.
The test system of data set [1] is patients with fibromyalgia and insulin resistance. Kind of data set: Retrospective review of Numeric Pain Rating Scale (NPRS) pain scores before and after treatment. It counts as in vivo, human. The procedure:
Data was obtained from the review of various patient populations as followed: First, the pain scores of two populations of patients were reviewed. Group 1 consisted of 16 patients with fibromyalgia and insulin resistance (HbA1c values of 5.7 or higher) who were prescribed metformin 500 mg twice a day for insulin resistance. In this group, metformin had been added to the “standard treatment” for fibromyalgia. The “standard treatment” (ST) consisted of norepinephrine reuptake inhibitors (amitriptyline, duloxetine or milnacipran) and/or membrane-stabilizing agents (gabapentin or pregabalin). […]
Second, the pain scores of another group of patients with insulin resistance and fibromyalgia, Group 2, who had been treated with […], a class of drugs that reduce insulin resistance by a mechanism different from metformin were analyzed. […]
Because peripheral neuropathies (including small fiber neuropathy) that are associated with insulin resistance may start at very early stages of pre-diabetes, there is a growing trend among experts to begin early pharmacological interventions to correct this abnormality, particularly when insulin resistance is associated with neuropathy or other risk factors. […] Pain scores were routinely recorded by the Numeric Pain Rating Scale (NPRS), at each clinical encounter. […]

The conditions of data set [2]: in vivo; cited from earlier work.

SMILES strings stand for the structures. “Also recorded” adds a separate entry of the source.

On to `CN(C)CCC=C1c2ccccc2CCc2ccccc21` [amitriptyline], for which the “NNT (numbers needed to treat)” value in the data set on fibromyalgia is listed as 4. Consider `CNCC[C@H](Oc1cccc2ccccc12)c1cccs1` [duloxetine], for which, in the data set on fibromyalgia, the “NNT (numbers needed to treat)” value is 6. Turning to `CN(C)C(=N)N=C(N)N` [metformin], the “change in pain scores (NPRS), in words” value in data set [1] (Group 2, 10 patients: 5 metformin alone, 5 PPD-4 inhibitor alone, no ST) was “comparable reductions in pain scores; also recorded: this improvement was only partial”. The “retention of the analgesic effect” value in data set [1] (long-term, refers to a Table 3 that is not given) is recorded as “long-term retention of the analgesic effect”. In data set [2], the “individuals intolerant to metformin” value was “at least 20%”.

Values taken from patent US20200237875A1, “FORMULATIONS AND METHODS FOR TREATMENT OF FIBROMYALGIA AND RELATED MYOFASCIAL PAIN DISORDERS” (SYNLEV PHARMACEUTICALS CORPORATION, priority 2019, published 2020).
